# What was measured:
# [1] = biological target: T1, CC chemokine receptor 4 (CCR4) (Mus musculus, UniProt P51680); experiment: inhibition of CCL22-driven chemotaxis of mouse iTreg in […] serum; format: cell-based
# T1 sequence (P51680 1-360): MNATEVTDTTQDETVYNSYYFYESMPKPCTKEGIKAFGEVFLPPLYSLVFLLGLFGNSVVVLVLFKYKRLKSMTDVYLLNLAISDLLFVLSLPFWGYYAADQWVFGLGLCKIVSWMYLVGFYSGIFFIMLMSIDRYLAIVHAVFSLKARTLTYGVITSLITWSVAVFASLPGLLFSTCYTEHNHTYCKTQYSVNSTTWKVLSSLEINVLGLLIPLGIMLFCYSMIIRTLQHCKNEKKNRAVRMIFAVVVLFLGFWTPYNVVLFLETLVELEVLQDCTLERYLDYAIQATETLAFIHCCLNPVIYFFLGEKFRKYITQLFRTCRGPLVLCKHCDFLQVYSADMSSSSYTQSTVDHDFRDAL
# [2] = biological target: T2, CC chemokine receptor 4 (CCR4) (Homo sapiens, UniProt P51679); experiment: inhibition of CCL22-driven chemotaxis of human iTreg in […] serum; format: cell-based
# T2 sequence (P51679 1-360): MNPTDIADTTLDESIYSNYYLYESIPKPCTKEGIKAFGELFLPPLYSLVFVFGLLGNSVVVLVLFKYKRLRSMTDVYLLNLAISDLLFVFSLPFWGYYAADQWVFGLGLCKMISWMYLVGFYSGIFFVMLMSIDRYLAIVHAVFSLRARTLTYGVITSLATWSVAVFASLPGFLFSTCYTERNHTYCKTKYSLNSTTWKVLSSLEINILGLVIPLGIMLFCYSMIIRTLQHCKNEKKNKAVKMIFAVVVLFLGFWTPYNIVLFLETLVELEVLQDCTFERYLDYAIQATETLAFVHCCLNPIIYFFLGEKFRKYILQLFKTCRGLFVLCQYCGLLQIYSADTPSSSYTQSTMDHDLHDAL
smiles,measurement,setting,value
C[C@H](c1ccc(Cl)cc1Cl)n1nc(C#N)c2ncc(N3CC([C@H]4CCCN(CCO)C4)C3)nc21 [CCR4-351],IC50,[1],~40 nM
same,IC50,[2],~40 nM

# Source: PMC7692993 (Journal for Immunotherapy of Cancer, 2020)
